Test results as given in patent US7115658B2 (priority 2002, dated 2006).

molecular target: T1, Recombinant HCV polymerase (Hepatitis C virus genotype 1b, UniProt P26663); test: HCV Polymerase Inhibition Assay; format: biochemical; settings: primer/template-directed transcription, 30 minutes at 30° C.; category symbol
T1 construct: 2.5 pmoles (0.15 μg) HCV polymerase protein
Description: The above-described compounds were tested for activity with HCV polymerase. Recombinant HCV polymerase was tested for its ability to perform primer/template-directed transcription in assays that contained 30 mM tris-HCl pH 7.2, 10 mM MgCl2, 20 mM NaCl, 1 mM Dithiothreitol (DTT), 0.05% Tween-20, 1% glycerol, 5 pmoles biotin-dG12 (primer), 0.5 pmoles poly(rC)300 (template), 1 μM GTP, 0.1–0.3 uCi α-^32P-GTP, and 2.5 pmoles (0.15 μg) HCV polymerase protein in a final volume of 75 μL. Reactions were initiated by addition of enzyme and incubated 30 minutes at 30° C. Reactions were stopped by addition of 33 mM EDTA, and polynucleotide products were collected by filtration through Diethylaminoethyl (DE) Filtermat papers (Wallac). Unincorporated triphosphate was removed by washing the filters with 5% dibasic sodium phosphate. The filters were counted in a Packard Tri-Lux Microbeta scintillation counter (Packard Bioscience, Meriden, Conn.). Compounds to be tested were added at various concentrations, e.g., 1 μm to 50 μm, from stocks in 10% DMSO-water (final DMSO is 1% in reaction).
IC50 values were estimated from the primary cpm data (collected in triplicate) using the formula: cpm (I)=cpm (no inhibitor)(1−([I]/([I]+IC50))). An IC50 value represents the concentration (in μM) of a compound that provides 50% inhibition of polymerase-directed transcription in the above assay. A percent inhibition value is expressed for a compound where it was impractical to calculate an IC50 value with available data. If the IC50 estimated by the above equation was less than 200 nM, it was recalculated using the following equation, which takes into account the enzyme concentration (30 nM) in the assay: cpm(I)=cpm(no inhibitor)(1−((((I+IC50+30e−9)−sqrt(((I+IC50+30e−9)^2)−4×30e−9×I)))/((2) (30e−9))). Curve fitting was performed using the program KaleidaGraph (Synergy Software, Reading, Pa.).

T1 sequence (P26663 2420-3010): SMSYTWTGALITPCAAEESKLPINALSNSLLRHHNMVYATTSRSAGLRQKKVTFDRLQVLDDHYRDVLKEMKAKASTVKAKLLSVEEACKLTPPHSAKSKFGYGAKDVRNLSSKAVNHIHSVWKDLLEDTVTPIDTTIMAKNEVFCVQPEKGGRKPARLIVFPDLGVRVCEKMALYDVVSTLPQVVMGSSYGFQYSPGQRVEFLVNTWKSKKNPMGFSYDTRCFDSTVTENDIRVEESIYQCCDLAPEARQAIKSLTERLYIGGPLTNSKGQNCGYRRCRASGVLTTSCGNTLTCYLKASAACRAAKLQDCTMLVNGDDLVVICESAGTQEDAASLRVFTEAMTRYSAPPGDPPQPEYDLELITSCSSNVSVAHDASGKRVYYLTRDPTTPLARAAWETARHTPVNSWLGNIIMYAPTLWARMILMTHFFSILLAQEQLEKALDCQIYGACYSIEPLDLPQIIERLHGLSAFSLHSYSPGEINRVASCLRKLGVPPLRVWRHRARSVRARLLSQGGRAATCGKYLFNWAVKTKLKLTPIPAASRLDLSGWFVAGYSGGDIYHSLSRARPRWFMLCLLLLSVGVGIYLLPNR

**Q.** How did the IC50 turn out when “5-Trifluoromethyl-pyridine-2-sulfonic acid[5-tert-butyl-4-(6,6-dicyclopentyl-4-hydroxy-2-oxo-5,6-dihydro-2H-pyran-3-ylsulfanyl)-2-methyl-phenyl]-amide [Example 185]” was run?
**A.** 10 to 50 µM

**Q.** For “6-Cyclopentyl-6-[2-(4-methoxy-phenyl)-ethyl]-3-[2-(3-methyl-isoxazol-5-yl)-acetyl]-dihydro-pyran-2,4-dione [Example 165]”, which IC50 is on record?
**A.** 10 to 50 µM

**Q.** “6-[2-(3-Chloro-4-isopropoxy-phenyl)-ethyl]-6-cyclopentyl-3-(5,7-dimethyl-[1,2,4]triazolo[1,5-a]pyrimidin-2-ylsulfanyl)-4-hydroxy-5,6-dihydro-pyran-2-one [Example 129]” was tested. Which IC50 did it give?
**A.** < 1 µM

**Q.** For “6-[2-(3-Chloro-4-isopropoxy-phenyl)-ethyl]-6-cyclopentyl-4-hydroxy-3-(4-hydroxy-phenylsulfanyl)-5,6-dihydro-pyran-2-one [Example 130]”, which IC50 is on record?
**A.** < 1 µM

**Q.** With “6-[2-(3-Chloro-4-isopropoxy-phenyl)-ethyl]-6-cyclopentyl-4-hydroxy-3-(4-methoxy-phenylsulfanyl)-5,6-dihydro-pyran-2-one [Example 131]” as the compound, how does the IC50 read?
**A.** < 1 µM

**Q.** Which IC50 does the source give for “6-[2-(3-Chloro-4-isopropoxy-phenyl)-ethyl]-6-cyclopentyl-4-hydroxy-3-(thiazol-2-ylsulfanyl)-5,6-dihydro-pyran-2-one [Example 132]” here?
**A.** < 1 µM

**Q.** Which IC50 does the source give for `O=C1C=C(O)CC(CC2CCc3ccccc32)(C2CCCC2)O1` (mixture of isomers) [Example 15, 6-Cyclopentyl-4-hydroxy-6-indan-1-ylmethyl-5,6-dihydro-pyran-2-one] here?
**A.** > 50 µM

**Q.** With `CC(=O)Nc1cc(C(C)(C)C)c(SC2=C(O)CC(CCc3ccc(O)cc3)(C3CCCC3)OC2=O)cc1C` (racemic) [Example 140, (+/−)N-(5-tert-butyl-4-{6-cyclopentyl-4-hydroxy-6-[2-(4-hydroxy-phenyl)-ethyl]-2-oxo-5,6-dihydro-2H-pyran-3-ylsulfanyl}-2-methyl-phenyl)-acetamide] as the compound, how does the IC50 read?
**A.** 1 to 10 µM

**Q.** Which IC50 does the source give for `O=C1CC(=O)OC(CCc2ccc(C(=O)N3CC[C@H](O)C3)cc2)(C2CCCC2)C1` (stereo in doubt) [Example 69, 6-Cyclopentyl-6-{2-[4-(3-hydroxy-pyrrolidine-1-carbonyl)-phenyl]-ethyl}-dihydro-pyran-2,4-dione] here?
**A.** 10 to 50 µM

**Q.** `O=C1CC(=O)OC(CCc2ccc(O)cc2)(C2CCCC2)C1` (stereo not shown) [Example 1, 6-Cyclopentyl-6-[2-(4-hydroxyphenyl)ethyl]dihydropyran-2,4-dione] was tested. Which IC50 did it give?
**A.** 10 to 50 µM

**Q.** Which IC50 does the source give for `O=C1CC(=O)OC(CCc2cccc3ccccc23)(C2CCCC2)C1` (stereo not shown) [Example 2, 6-Cyclopentyl-6-(2-napthalen-1-ylethyl)dihydropyran-2,4-dione] here?
**A.** > 50 µM

**Q.** How did the IC50 turn out when `COc1ccccc1CCC1(C2CCCC2)CC(=O)CC(=O)O1` (stereo not shown) [Example 4, 6-Cyclopentyl-6-[2-(2-methoxyphenyl)ethyl]dihydropyran-2,4-dione] was run?
**A.** 10 to 50 µM

**Q.** Which IC50 does the source give for `C=CCOCc1ccccc1CCC1(C2CCCC2)CC(=O)CC(=O)O1` (stereo not shown) [Example 5, 6-[2-(2-Allyloxymethylphenyl)ethyl]-6-cyclopentyldihydropyran-2,4-dione] here?
**A.** 10 to 50 µM

**Q.** For `O=C1CC(=O)OC(CCc2ccccc2CO)(C2CCCC2)C1` (stereo not shown) [Example 6, 6-Cyclopentyl-6-[2-(2-hydroxymethylphenyl)ethyl]dihydropyran-2,4-dione], which IC50 is on record?
**A.** 10 to 50 µM

**Q.** With `COc1ccc(CCC2(C3CCCC3)CC(=O)CC(=O)O2)c(C#N)c1` (stereo not shown) [Example 7, 2-[2-(2-Cyclopentyl-4,6-dioxo-tetrahydro-pyran-2-yl)-ethyl]-5-methoxy-benzonitrile] as the compound, how does the IC50 read?
**A.** 10 to 50 µM

**Q.** How did the IC50 turn out when `COc1ccc(CCC2(C3CCCC3)CC(=O)CC(=O)O2)cn1` (stereo not shown) [Example 8, 6-cyclopentyl-6-[2-(6-methoxypyridin-3-yl)ethyl]dihydro-2H-pyran-2,4(3H)-dione] was run?
**A.** 10 to 50 µM

**Q.** With `CC(C)c1cccc(CCC2(C3CCCC3)CC(=O)CC(=O)O2)c1` (stereo not shown) [Example 9, 6-Cyclopentyl-6-[2-(3-isopropyl-phenyl)-ethyl]-dihydro-pyran-2,4-dione] as the compound, how does the IC50 read?
**A.** 1 to 10 µM

**Q.** Which IC50 does the source give for `COC(=O)Cc1ccc(CCC2(C3CCCC3)CC(=O)CC(=O)O2)cc1` (stereo not shown) [Example 10, {4-[2-(2-Cyclopentyl-4,6-dioxo-tetrahydro-pyran-2-yl)-ethyl]-phenyl}-acetic acid methyl ester] here?
**A.** 10 to 50 µM

**Q.** Which IC50 does the source give for `CC(C)(C)c1cccc(CCC2(C3CCCC3)CC(=O)CC(=O)O2)c1` (stereo not shown) [Example 11, 6-[2-(3-tert-butyl-phenyl)-ethyl]-6-cyclopentyl-dihydro-pyran-2,4-dione] here?
**A.** 1 to 10 µM

**Q.** For `O=C1CC(=O)OC(CCc2nccs2)(C2CCCC2)C1` (stereo not shown) [Example 12, 6-Cyclopentyl-6-(2-thiazol-2-yl-ethyl)-dihydro-pyran-2,4-dione], which IC50 is on record?
**A.** > 50 µM

**Q.** With `CC(C)(C#N)c1cccc(CCC2(C3CCCC3)CC(=O)CC(=O)O2)c1` (stereo not shown) [Example 13, 2-{3-[2-(2-Cyclopentyl-4,6-dioxo-tetrahydro-pyran-2-yl)-ethyl]-phenyl}-2-methyl-propionitrile] as the compound, how does the IC50 read?
**A.** 1 to 10 µM

**Q.** Which IC50 does the source give for `CC(C)(C)OC(=O)NCC(C)(C)c1cccc(CCC2(C3CCCC3)CC(=O)CC(=O)O2)c1` (stereo not shown) [Example 14, (2-{3-[2-(2-Cyclopentyl-4,6-dioxo-tetrahydro-pyran-2-yl)-ethyl]-phenyl}-2-methyl-propyl)-carbamic acid tert-butyl ester] here?
**A.** 10 to 50 µM

**Q.** With `COc1cccc(CCC2(C3CCCC3)CC(O)=CC(=O)O2)c1` (stereo not shown) [Example 16, 6-Cyclopentyl-4-hydroxy-6-[2-(3-methoxy-phenyl)-ethyl]-5,6-dihydropyran-2-one] as the compound, how does the IC50 read?
**A.** 10 to 50 µM

**Q.** For `CC(=O)c1ccc(CCC2(C3CCCC3)CC(O)=CC(=O)O2)cc1C` (stereo not shown) [Example 17, 6-[2-(4-Acetyl-3-methyl-phenyl)-ethyl]-6cyclopentyl-4-hydroxy-5,6-dihydro-pyran-2-one], which IC50 is on record?
**A.** 1 to 10 µM

**Q.** For `Cc1cc(CCC2(C3CCCC3)CC(O)=CC(=O)O2)ccc1C1(C)OCCO1` (stereo not shown) [Example 18, 6-Cyclopentyl-4-hydroxy-6-{2-[3-methyl-4-(2-methyl-1,3-dioxolan-2-yl)-phenyl]-ethyl}-5,6-dihydro-pyran-2-one], which IC50 is on record?
**A.** 1 to 10 µM

**Q.** How did the IC50 turn out when `COc1cc(CCC2(C3CCCC3)CC(O)=CC(=O)O2)ccc1O` (stereo not shown) [Example 19, 6-Cyclopentyl-4-hydroxy-6-[2-(4-hydroxy-3-methoxy-phenyl)-ethyl]-5,6-dihydro-pyran-2-one] was run?
**A.** 1 to 10 µM

**Q.** How did the IC50 turn out when `COc1cc(CCC2(C3CCCC3)CC(O)=CC(=O)O2)ccc1OCc1ccccc1` (stereo not shown) [Example 20, 6-[2-(4-Benzyloxy-3-methoxy-phenyl)-ethyl]-6-cyclopentyl-4-hydroxy-5,6-dihydro-pyran-2-one] was run?
**A.** 1 to 10 µM

**Q.** For `O=C1C=C(O)CC(CCCc2ccccc2)(C2CCCC2)O1` (stereo not shown) [Example 21, 6-Cyclopentyl-4-hydroxy-6-(3-phenyl-propyl)-5,6-dihydro-pyran-2 one], which IC50 is on record?
**A.** > 50 µM

**Q.** For `O=C1C=C(O)CC(CCCC2CCCCC2)(C2CCCC2)O1` (stereo not shown) [Example 22, 6-(3-Cyclohexyl-propyl)-6-cyclopentyl-4-hydroxy-5,6-dihydro-pyran-2-one], which IC50 is on record?
**A.** 10 to 50 µM

**Q.** `O=C1CC(=O)OC(CCc2ccc3c(c2)OCO3)(C2CCCC2)C1` (stereo not shown) [Example 23, 6-(2-Benzo[1,3]dioxol-5-yl-ethyl)-6-cyclopentyl-dihydro-pyran-2,4-dione] was tested. Which IC50 did it give?
**A.** 10 to 50 µM

**Q.** With `CCOc1cccc(CCC2(C3CCCC3)CC(=O)CC(=O)O2)c1` (stereo not shown) [Example 24, 6-Cyclopentyl-6-[2-(3-ethoxy-phenyl)-ethyl]-dihydro-pyran-2,4-dione] as the compound, how does the IC50 read?
**A.** 1 to 10 µM

**Q.** For `CCOc1ccc(CCC2(C3CCCC3)CC(=O)CC(=O)O2)cc1` (stereo not shown) [Example 25, 6-Cyclopentyl-6-[2-(4-ethoxy-phenyl)-ethyl]-dihydro-pyran-2,4-dione], which IC50 is on record?
**A.** 1 to 10 µM

**Q.** With `O=C1CC(=O)OC(CCc2cccc(Cl)c2)(C2CCCC2)C1` (stereo not shown) [Example 26, 6-[2-(3-Chloro-phenyl)-ethyl]-6-cyclopentyl-dihydro-pyran-2,4-dione] as the compound, how does the IC50 read?
**A.** 1 to 10 µM

**Q.** For `COc1ccc(CCC2(C3CCCC3)CC(=O)CC(=O)O2)cc1Cl` (stereo not shown) [Example 27, 6-[2-(3-Chloro-4-methoxy-phenyl)-ethyl]-6-cyclopentyl-dihydro-pyran-2,4-dione], which IC50 is on record?
**A.** 1 to 10 µM

**Q.** For `CS(=O)(=O)c1ccc(CCC2(C3CCCC3)CC(=O)CC(=O)O2)cc1` (stereo not shown) [Example 28, 6-Cyclopentyl-6-[2-(4-methanesulfonyl-phenyl)-ethyl]-dihydro-pyran-2,4-dione], which IC50 is on record?
**A.** 1 to 10 µM

**Q.** How did the IC50 turn out when `COc1ccc(CCC2(C3CCCC3)CC(=O)CC(=O)O2)cc1C` (stereo not shown) [Example 29, 6-Cyclopentyl-6-[2-(4-methoxy-3-methyl-phenyl)-ethyl]-dihydro-pyran-2,4-dione] was run?
**A.** 1 to 10 µM

**Q.** Which IC50 does the source give for `COc1ccc(CCC2(C3CCCC3)CC(=O)CC(=O)O2)cc1F` (stereo not shown) [Example 30, 6-Cyclopentyl-6-[2-(3-fluoro-4-methoxy-phenyl)-ethyl]-dihydro-pyran-2,4-dione] here?
**A.** < 1 µM
